Values after ≈ are worked out from the molar mass of the structure shown.
Experiments:
Type in all cases: cell-based
S.pyogenes Cook = assay: In vitro antibacterial activity, agar disc dilution method; details: Streptococcus pyogenes; S.pyogenes Cook; Mueller Hinton agar, 10^6/ml, 37°C for 16 hours; read-out: minimum growth inhibitory concentration (MIC)
Protocol: (§1) An in vitro antibacterial activity was measured by an agar disc dilution method.
(§2) Varied test bacteria were cultivated overnight in triptophane-soybroth. A Mueller Hinton agar containing the compound of this invention in varied concentrations was streaked with one platinum loopful of each of the bacteria (number of living cells 10^6/ml).

P.morganii IFO3445 = assay: as above; details: Morganella morganii; P.morganii IFO3445; Mueller Hinton agar, 10^6/ml, 37°C for 16 hours; read-out: minimum growth inhibitory concentration (MIC)
Protocol: as §1, §2

P.vulgalis OX-11 = assay: as above; details: P.vulgalis OX-11; Mueller Hinton agar, 10^6/ml, 37°C for 16 hours; read-out: minimum growth inhibitory concentration (MIC)
Protocol: as §1, §2

S.typhi 901 = assay: as above; details: Salmonella enterica, 16 h, read-out: minimum growth inhibitory concentration (MIC)
Protocol: as §1, §2

E.cloacae 963 = assay: as above; details: Enterobacter cloacae; E.cloacae 963; Mueller Hinton agar, 10^6/ml, 37°C for 16 hours; read-out: minimum growth inhibitory concentration (MIC)
Protocol: as §1, §2

K.pneumoniae PCI602 = assay: as above; details: Klebsiella pneumoniae; K.pneumoniae PCI602; Mueller Hinton agar, 10^6/ml, 37°C for 16 hours; read-out: minimum growth inhibitory concentration (MIC)
Protocol: as §1, §2

S.aureus 209p NIHJ JC1 = assay: as above; details: Staphylococcus aureus; S.aureus 209p NIHJ JC1; Mueller Hinton agar, 10^6/ml, 37°C for 16 hours; read-out: minimum growth inhibitory concentration (MIC)
Protocol: as §1, §2

P.aeruginosa PAD1 = assay: as above; details: Pseudomonas aeruginosa; P.aeruginosa PAD1; Mueller Hinton agar, 10^6/ml, 37°C for 16 hours; read-out: minimum growth inhibitory concentration (MIC)
Protocol: as §1, §2

S.enteritidis G14 = assay: as above; details: Salmonella enterica; S.enteritidis G14; Mueller Hinton agar, 10^6/ml, 37°C for 16 hours; read-out: minimum growth inhibitory concentration (MIC)
Protocol: as §1, §2

M.luteus ATCC9341 = assay: as above; details: Micrococcus luteus; M.luteus ATCC9341; Mueller Hinton agar, 10^6/ml, 37°C for 16 hours; read-out: minimum growth inhibitory concentration (MIC)
Protocol: as §1, §2

P.aeruginosa IFO3445 = assay: as above; details: Pseudomonas aeruginosa; P.aeruginosa IFO3445; Mueller Hinton agar, 10^6/ml, 37°C for 16 hours; read-out: minimum growth inhibitory concentration (MIC)
Protocol: as §1, §2

S. aureus Terajima = assay: as above; details: Staphylococcus aureus; S. aureus Terajima; Mueller Hinton agar, 10^6/ml, 37°C for 16 hours; read-out: minimum growth inhibitory concentration (MIC)
Protocol: as §1, §2

S.marcescens IAM1184 = assay: as above; details: Serratia marcescens; S.marcescens IAM1184; Mueller Hinton agar, 10^6/ml, 37°C for 16 hours; read-out: minimum growth inhibitory concentration (MIC)
Protocol: as §1, §2

P.aeruginosa NCTC1049 = assay: as above; details: Pseudomonas aeruginosa; P.aeruginosa NCTC1049; Mueller Hinton agar, 10^6/ml, 37°C for 16 hours; read-out: minimum growth inhibitory concentration (MIC)
Protocol: as §1, §2

P.aeruginosa 0-11 = assay: MIC values of 10 kinds of Pseudomonas aeruginosa; details: Pseudomonas aeruginosa, 011, 16 h; P.aeruginosa 0-11 (Table II); read-out: MIC values
Protocol: as §1, §2
(§3) MIC values of 10 kinds of Pseudomonas aeruginosa were measured for Compound III, Comparative Example B and CAZ.

P.aeruginosa N-3 = assay: MIC values of 10 kinds of Pseudomonas aeruginosa; details: N3, 16 h, P.aeruginosa N-3 (Table II), read-out: MIC values
Protocol: as §1, §2, §3

P.aeruginosa Tid53 = assay: MIC values of 10 kinds of Pseudomonas aeruginosa; details: 16 h, P.aeruginosa Tid53 (Table II), read-out: MIC values
Protocol: as §1, §2, §3

P.aeruginosa ATCC27318 = assay: MIC values of 10 kinds of Pseudomonas aeruginosa; details: 16 h, P.aeruginosa ATCC27318 (Table II), read-out: MIC values
Protocol: as §1, §2, §3

P.aeruginosa N-26 = assay: MIC values of 10 kinds of Pseudomonas aeruginosa; details: N26, 16 h, P.aeruginosa N-26 (Table II), read-out: MIC values
Protocol: as §1, §2, §3

P.aeruginosa 64 = assay: MIC values of 10 kinds of Pseudomonas aeruginosa; details: Pseudomonas aeruginosa, 16 h; P.aeruginosa 64 (Table II); read-out: MIC values
Protocol: as §1, §2, §3

P.aeruginosa 88 = assay: MIC values of 10 kinds of Pseudomonas aeruginosa; details: Pseudomonas aeruginosa, 16 h; P.aeruginosa 88 (Table II); read-out: MIC values
Protocol: as §1, §2, §3

P.aeruginosa NO. 97 = assay: MIC values of 10 kinds of Pseudomonas aeruginosa; details: 16 h, P.aeruginosa NO. 97 (Table II), read-out: MIC values
Protocol: as §1, §2, §3

P.aeruginosa ATCC27577 = assay: MIC values of 10 kinds of Pseudomonas aeruginosa; details: 16 h, P.aeruginosa ATCC27577 (Table II), read-out: MIC values
Protocol: as §1, §2, §3

P.aeruginosa N-2 = assay: MIC values of 10 kinds of Pseudomonas aeruginosa; details: N2, 16 h, P.aeruginosa N-2 (Table II), read-out: MIC values
Protocol: as §1, §2, §3

SMILES	MIC (S.pyogenes Cook)	MIC (P.morganii IFO3445)	MIC (P.vulgalis OX-11)	MIC (S.typhi 901)	MIC (E.cloacae 963)	MIC (K.pneumoniae PCI602)	MIC (S.aureus 209p NIHJ JC1)	MIC (P.aeruginosa PAD1)	MIC (S.enteritidis G14)	MIC (M.luteus ATCC9341)	MIC (P.aeruginosa IFO3445)	MIC (S. aureus Terajima)	MIC (S.marcescens IAM1184)	MIC (P.aeruginosa NCTC1049)	also measured
CC(C)(ON=C(C(=O)NC1C(=O)N2C(C(=O)[O-])=C(C[n+]3ccc4cc(O)c(O)cc4c3)CSC12)c1csc(N)n1)C(=O)O [Comparative Compound B, (6R,7R)-7-[(Z)-2-(2-amino-l,3-thiazol-4-yl)-2-(2-carboxypropyl-2-yloxyimino)acetamide]-3-(6,7-dihydroxy-2-isoquinolinium)methyl-3-cephem-4-carboxylate, reference compound]	1.6 µg/mL (≈ 2.55 µM)	0.005 µg/mL (≈ 0.00795 µM)	0.005 µg/mL (≈ 0.00795 µM)	0.005 µg/mL (≈ 0.00795 µM)	0.005 µg/mL (≈ 0.00795 µM)	0.005 µg/mL (≈ 0.00795 µM)	12.5 µg/mL (≈ 19.9 µM)	0.025 µg/mL (≈ 0.0398 µM)	0.005 µg/mL (≈ 0.00795 µM)	3.1 µg/mL (≈ 4.93 µM)	0.025 µg/mL (≈ 0.0398 µM)	3.1 µg/mL (≈ 4.93 µM)	0.005 µg/mL (≈ 0.00795 µM)	0.0125 µg/mL (≈ 0.0199 µM)	MIC (P.aeruginosa 0-11): 0.05 µg/mL (≈ 0.0795 µM); MIC (P.aeruginosa N-3): 0.05 µg/mL (≈ 0.0795 µM); MIC (P.aeruginosa Tid53): 0.05 µg/mL (≈ 0.0795 µM); MIC (P.aeruginosa ATCC27318): 0.05 µg/mL (≈ 0.0795 µM); MIC (P.aeruginosa N-26): 0.1 µg/mL (≈ 0.159 µM); MIC (P.aeruginosa 64): 0.05 µg/mL (≈ 0.0795 µM); MIC (P.aeruginosa 88): 0.025 µg/mL (≈ 0.0398 µM); MIC (P.aeruginosa NO. 97): 0.025 µg/mL (≈ 0.0398 µM); MIC (P.aeruginosa ATCC27577): 0.005 µg/mL (≈ 0.00795 µM); MIC (P.aeruginosa N-2): 0.05 µg/mL (≈ 0.0795 µM)
CON=C(C(=O)NC1C(=O)N2C(C(=O)[O-])=C(C[n+]3ccc4cc(O)c(O)cc4c3)CSC12)c1csc(N)n1 [Comparative Compound A, (6R,7R)-7-[(Z)-2-(2-amino-l,3-thiazol-4-yl)-2-methoxyiminolacetamide-3-(6,7-dihydroxy-2-isoquinolinium)methyl-3-cephem-4-carboxylate, reference compound]	0.2 µg/mL (≈ 0.359 µM)	0.1 µg/mL (≈ 0.18 µM)	0.005 µg/mL (≈ 0.00898 µM)	0.005 µg/mL (≈ 0.00898 µM)	0.025 µg/mL (≈ 0.0449 µM)	0.005 µg/mL (≈ 0.00898 µM)	0.4 µg/mL (≈ 0.719 µM)	50 µg/mL (≈ 89.8 µM)	0.005 µg/mL (≈ 0.00898 µM)	0.4 µg/mL (≈ 0.719 µM)	50 µg/mL (≈ 89.8 µM)	0.4 µg/mL (≈ 0.719 µM)	0.005 µg/mL (≈ 0.00898 µM)	0.2 µg/mL (≈ 0.359 µM)	–
Nc1nc(C(=NOC(C(=O)O)c2ccccc2)C(=O)NC2C(=O)N3C(C(=O)[O-])=C(C[n+]4ccc5cc(O)c(O)cc5c4)CSC23)ns1 [Compound IV, (6R,7R)-7-[(Z)-2-(5-amino-l,2,4-thiadiazol-3-yl-2-[(alpha-carboxybenzyl)oxyimino]acetamide-3-(6,7-dihydroxy-2-isoquinolinium)methyl-3-cephem-4-carboxylate]	0.8 µg/mL (≈ 1.18 µM)	0.005 µg/mL (≈ 0.00738 µM)	0.005 µg/mL (≈ 0.00738 µM)	0.005 µg/mL (≈ 0.00738 µM)	0.005 µg/mL (≈ 0.00738 µM)	0.005 µg/mL (≈ 0.00738 µM)	3.2 µg/mL (≈ 4.72 µM)	0.025 µg/mL (≈ 0.0369 µM)	0.005 µg/mL (≈ 0.00738 µM)	0.8 µg/mL (≈ 1.18 µM)	0.025 µg/mL (≈ 0.0369 µM)	3.2 µg/mL (≈ 4.72 µM)	0.005 µg/mL (≈ 0.00738 µM)	0.0125 µg/mL (≈ 0.0184 µM)	–

Source: patent EP0347459A1, “CEPHALOSPORIN COMPOUNDS OR THEIR SALTS, PROCESS FOR THEIR PREPARATION, AND PHARMACEUTICAL COMPOSITIONS” (TEIJIN LIMITED, priority 1987, dated 1988)
